13 compounds from patent US20080318947A1, “Inhibitors of Akt Activity” (priority 2005, published 2008) can be followed below.

Common to all, as to experiment: AKT enzyme assay (substrate phosphorylation, SPA)
Common to all, as to format: biochemical

One test concerns the target T1, AKT1 (Homo sapiens, UniProt P31749).
T1 construct: Insect cells expressing His-tagged AKT1 (aa 136-480) are lysed; His; made in house; host or cells: insect cells
The following applies: 10 nM activated AKT enzyme, 4 uM ATP, 8 uM peptide, 40 minutes at room temperature; read-out: IC50 value against AKT1. As for the experimental part: Cell debris are removed by centrifuging at 28,000×g for 30 minutes. The supernatant is filtered through a […] filter then loaded onto a nickel-chelating column pre-equilibrated with lysis buffer. The column is washed with 5 column volumes (CV) of lysis buffer then with 5 CV of 20% buffer B, where buffer B is 25 mM HEPES, 100 mM NaCl, 300 mM imidazole; pH 7.5. […] The sample is then chromatographed over a Q-Sepharose HP column pre-equilibrated with buffer C. The column is washed with 5 CV of buffer C then step eluted with 5 CV 10% D, 5 CV 20% D, 5 CV 30% D, 5 CV 50% D and 5 CV of 100% D; where buffer D is 25 mM HEPES, 1000 mM NaCl; pH 7.5. […] The protein is pooled, concentrated and frozen at −80 C.
(§1) Compounds of the present invention are tested for AKT 1, 2, and 3 protein serine kinase inhibitory activity in substrate phosphorylation assays. This assay examines the ability of small molecule organic compounds to inhibit the serine phosphorylation of a peptide substrate. The substrate phosphorylation assays use the catalytic domains of AKT 1, 2, or 3. AKT 1, 2 and 3 are also commercially available from Upstate USA, Inc. The method measures the ability of the isolated enzyme to catalyze the transfer of the gamma-phosphate from ATP onto the serine residue of a biotinylated synthetic peptide SEQ. ID NO: 5 (Biotin-ahx-[…]-amide). Substrate phosphorylation is detected by the following procedure:
(§2) Assays are performed in 384 well U-bottom white plates. […] ATP/well, 1 mM CHAPS, 2 mM DTT, and 1 ul of test compound in 100% DMSO. The reaction is stopped by the addition of 50 ul SPA bead mix (Dulbecco's PBS without Mg^2+ and Ca^2+, 0.1% Triton X-100, 5 mM EDTA, 50 uM ATP, 2.5 mg/ml Streptavidin-coated SPA beads.) The plate is sealed, the beads are allowed to settle overnight, and then the plate is counted in a Packard Topcount Microplate Scintillation Counter (Packard Instrument Co., Meriden, Conn.).
(§3) The data for dose responses are plotted as % Control calculated with the data reduction formula 100*(U1−C2)/(C1−C2) versus concentration of compound where U is the unknown value, C1 is the average control value obtained for DMSO, and C2 is the average control value obtained for 0.1M EDTA. Data are fitted to the curve described by: y=((Vmax*x)/(K+x)) where Vmax is the upper asymptote and K is the IC50.

In another test the target is T2, AKT3 (Homo sapiens, UniProt Q9Y243).
T2 construct: His-tagged AKT3 (aa 135-479) are isolated and purified in a similar fashion; His; made in house; host or cells: insect cells (by 'similar fashion' to AKT1)
T2 sequence (Q9Y243 135-479): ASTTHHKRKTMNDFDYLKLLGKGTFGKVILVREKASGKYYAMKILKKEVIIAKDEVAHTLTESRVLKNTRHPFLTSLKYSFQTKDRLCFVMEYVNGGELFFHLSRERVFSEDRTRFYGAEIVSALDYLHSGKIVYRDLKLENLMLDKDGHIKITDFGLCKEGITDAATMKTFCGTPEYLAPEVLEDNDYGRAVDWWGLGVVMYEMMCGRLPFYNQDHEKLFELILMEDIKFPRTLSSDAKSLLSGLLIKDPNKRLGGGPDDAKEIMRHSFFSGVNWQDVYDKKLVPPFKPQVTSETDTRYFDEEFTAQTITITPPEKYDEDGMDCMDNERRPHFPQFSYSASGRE
The note with it: 10 nM activated AKT enzyme, 4 uM ATP, 8 uM peptide, 40 minutes at room temperature; read-out: IC50 value against AKT3. As to the method: as §1, §2, §3

A further test concerns the target T3, AKT2 (Homo sapiens, UniProt P31751).
T3 construct: His-tagged AKT2 (aa 138-481) and His-tagged AKT3 (aa 135-479) are isolated; His; made in house; host or cells: insect cells (by 'similar fashion' to AKT1)
The following applies: 10 nM activated AKT enzyme, 4 uM ATP, 8 uM peptide, 40 minutes at room temperature; read-out: IC50 value against AKT2. As for the experimental part:
as §1, §2, §3

T1 sequence (P31749 136-480): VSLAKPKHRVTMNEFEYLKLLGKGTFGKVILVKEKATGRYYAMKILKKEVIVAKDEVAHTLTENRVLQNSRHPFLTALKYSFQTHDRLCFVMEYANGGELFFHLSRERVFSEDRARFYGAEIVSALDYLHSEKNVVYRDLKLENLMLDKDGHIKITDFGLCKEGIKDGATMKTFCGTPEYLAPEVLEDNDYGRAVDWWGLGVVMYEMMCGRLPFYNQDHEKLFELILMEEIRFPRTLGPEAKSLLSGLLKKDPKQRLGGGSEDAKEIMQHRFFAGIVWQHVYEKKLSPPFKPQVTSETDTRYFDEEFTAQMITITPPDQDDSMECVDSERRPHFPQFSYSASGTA
T3 sequence (P31751 138-481): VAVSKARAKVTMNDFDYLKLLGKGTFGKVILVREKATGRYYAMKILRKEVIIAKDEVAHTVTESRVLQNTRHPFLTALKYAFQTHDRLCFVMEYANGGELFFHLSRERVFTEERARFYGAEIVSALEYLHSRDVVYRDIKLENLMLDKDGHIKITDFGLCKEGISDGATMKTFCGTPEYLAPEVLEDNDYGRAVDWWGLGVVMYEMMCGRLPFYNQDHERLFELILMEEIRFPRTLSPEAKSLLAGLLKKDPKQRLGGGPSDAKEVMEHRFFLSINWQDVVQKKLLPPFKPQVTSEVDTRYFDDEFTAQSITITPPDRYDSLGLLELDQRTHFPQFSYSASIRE

What is called IC50 is the midpoint of a concentration-inhibition curve. In the case of `CCn1c(-c2nonc2N)nc2c(C#CC(C)(C)O)nc(OC(CN)c3cccc4c3OCO4)cc21` (racemic) [Example 92, 4-[6-{[2-amino-1-(1,3-benzodioxol-4-yl)ethyl]oxy}-2-(4-amino-1,2,5-oxadiazol-3-yl)-1-ethyl-1H-imidazo[4,5-c]pyridin-4-yl]-2-methyl-3-butyn-2-ol], the IC50 at AKT1, at AKT3 and on AKT2 was at most 500 nM each time.
With `CCn1c(-c2nonc2N)nc2c(C#CC(C)(C)O)nc(OC(CN)c3cccc4c3OCO4)cc21` (single isomer, unassigned) [Example 93, 4-[6-{[2-amino-1-(1,3-benzodioxol-4-yl)ethyl]oxy}-2-(4-amino-1,2,5-oxadiazol-3-yl)-1-ethyl-1H-imidazo[4,5-c]pyridin-4-yl]-2-methyl-3-butyn-2-ol], the half-inhibitory concentration (IC50) at AKT1, at AKT3 and at AKT2 was at most 500 nM throughout.
As for `CCn1c(-c2nonc2N)nc2c(C#CC(C)(C)O)nc(OC(CN)C3CCCCC3)cc21` (single isomer, unassigned) [Example 123, 4-[6-[(2-amino-1-cyclohexylethyl)oxy]-2-(4-amino-1,2,5-oxadiazol-3-yl)-1-ethyl-1H-imidazo[4,5-c]pyridin-4-yl]-2-methyl-3-butyn-2-ol], the concentration for half-maximal inhibition (IC50) at AKT1, at AKT3 and at AKT2 was at most 500 nM each time.
Take `CCn1c(-c2nonc2N)nc2c(C#CC(C)(C)O)nc(OC[C@H](N)Cc3ccccc3)cc21` [Example 43, 4-(2-(4-amino-1,2,5-oxadiazol-3-yl)-6-{[(2R)-2-amino-3-phenylpropyl]oxy}-1-ethyl-1H-imidazo[4,5-c]pyridin-4-yl)-2-methyl-3-butyn-2-ol]: the IC50 at AKT1 and on AKT3 was at most 500 nM in each case.
With `CCn1c(-c2nonc2N)nc2c(C#CC(C)(C)O)nc(OC(CN)c3ccccc3)cc21` (centres unmarked) [Example 77, 4-{2-(4-amino-1,2,5-oxadiazol-3-yl)-6-[(2-amino-1-phenylethyl)oxy]-1-ethyl-1H-imidazo[4,5-c]pyridin-4-yl}-2-methyl-3-butyn-2-ol], on AKT3, the IC50 is at most 500 nM.
As for `CCn1c(-c2nonc2N)nc2c(C#CC(C)(C)O)nc(O[C@@H](CN)c3ccccc3)cc21` [Example 86, 4-(2-(4-amino-1,2,5-oxadiazol-3-yl)-6-{[(1R)-2-amino-1-phenylethyl]oxy}-1-ethyl-1H-imidazo[4,5-c]pyridin-4-yl)-2-methyl-3-butyn-2-ol], on AKT3, the half-inhibitory concentration (IC50) is at most 500 nM.
On to `CCn1c(-c2nonc2N)nc2c(C#CC(C)(C)O)nc(OC(CN)Cc3ccccc3)cc21` (centres unmarked) [Example 106, 4-(2-(4-amino-1,2,5-oxadiazol-3-yl)-6-{[2-amino-1-(phenylmethyl)ethyl]oxy}-1-ethyl-1H-imidazo[4,5-c]pyridin-4-yl)-2-methyl-3-butyn-2-ol], for which the IC50 at AKT1, at AKT3 and at AKT2 was at most 500 nM in each case.
Regarding `CCn1c(-c2nonc2N)nc2c(C#CC(C)(C)O)nc(O[C@@H](CCN)c3ccccc3)cc21` [Example 108, 4-(2-(4-amino-1,2,5-oxadiazol-3-yl)-6-{[(1S)-3-amino-1-phenylpropyl]oxy}-1-ethyl-1H-imidazo[4,5-c]pyridin-4-yl)-2-methyl-3-butyn-2-ol], on AKT3, the half-inhibitory concentration (IC50) is at most 500 nM.
For `CCn1c(-c2nonc2N)nc2c(C#CC(C)(C)O)nc(O[C@@H](c3ccccc3)[C@H]3CCCN3)cc21` [Example 117, 4-[2-(4-amino-1,2,5-oxadiazol-3-yl)-1-ethyl-6-([(S)-phenyl[(2R)-2-pyrrolidinyl]methyl]oxy)-1H-imidazo[4,5-c]pyridin-4-yl]-2-methyl-3-butyn-2-ol], the IC50 at AKT1, on AKT3 and on AKT2 was at most 500 nM each time.
Turning to `CCn1c(-c2nonc2N)nc2c(C#CC(C)(C)O)nc(OC(CN)c3cccc(OC)c3)cc21` (centres unmarked) [Example 132, 4-[6-({2-amino-1-[3-(methyloxy)phenyl]ethyl}oxy)-2-(4-amino-1,2,5-oxadiazol-3-yl)-1-ethyl-1H-imidazo[4,5-c]pyridin-4-yl]-2-methyl-3-butyn-2-ol], the IC50 at AKT1, on AKT3 and at AKT2 was at most 500 nM throughout.
For `CCn1c(-c2nonc2N)nc2c(C#CC(C)(C)O)nc(OC[C@H](N)Cc3ccccc3Cl)cc21` [Example 143, 4-[6-{[(2R)-2-amino-3-(2-chlorophenyl)propyl]oxy}-2-(4-amino-1,2,5-oxadiazol-3-yl)-1-ethyl-1H-imidazo[4,5-c]pyridin-4-yl]-2-methyl-3-butyn-2-ol], the IC50 on AKT1, on AKT3 and at AKT2 was at most 500 nM throughout.
Take `CCn1c(-c2nonc2N)nc2c(C#CC(C)(C)O)nc(OC(CN)c3cccc(Cl)c3)cc21` (centres unmarked) [Example 151, 4-[6-{[2-amino-1-(3-chlorophenyl)ethyl]oxy}-2-(4-amino-1,2,5-oxadiazol-3-yl)-1-ethyl-1H-imidazo[4,5-c]pyridin-4-yl]-2-methyl-3-butyn-2-ol]: the 50% inhibitory concentration (IC50) at AKT1, at AKT3 and on AKT2 was at most 500 nM in each case.
As for `CCn1c(-c2nonc2N)nc2c(C#CC(C)(C)O)nc(OC(CN)c3ccccc3Cl)cc21` (centres unmarked) [Example 152, 4-[6-{[2-amino-1-(2-chlorophenyl)ethyl]oxy}-2-(4-amino-1,2,5-oxadiazol-3-yl)-1-ethyl-1H-imidazo[4,5-c]pyridin-4-yl]-2-methyl-3-butyn-2-ol], the IC50 at AKT1, on AKT3 and at AKT2 was at most 500 nM in each case.
